Assays:
TMD-8 cells = assay: Cell proliferation assay (CellTiter-Glo), TMD-8 cells; format: cell-based; details: Homo sapiens, TMD8, 120 h, 5-day treatment, read-out: TMD8 cell growth (GI50 μM)
In short: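 TMD-8 cells seeded at 5,000–10,000/well, cultured overnight, then exposed to compound (vehicle 0.5% DMSO) for 5 days at 37 °C. Growth read by CellTiter-Glo luminescence; IC50 from log concentration versus % growth inhibition relative to vehicle.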

Btk = target: T1, Btk (Homo sapiens, UniProt Q06187); assay: Btk kinase assay (ADP-Glo); format: biochemical; details: ADP-Glo Btk kinase assay kit; ATP 1.2 μM; 60 minutes at room temperature
T1 construct: purchased Promega (Madison, Wis.)
T1 sequence (Q06187 whole entry): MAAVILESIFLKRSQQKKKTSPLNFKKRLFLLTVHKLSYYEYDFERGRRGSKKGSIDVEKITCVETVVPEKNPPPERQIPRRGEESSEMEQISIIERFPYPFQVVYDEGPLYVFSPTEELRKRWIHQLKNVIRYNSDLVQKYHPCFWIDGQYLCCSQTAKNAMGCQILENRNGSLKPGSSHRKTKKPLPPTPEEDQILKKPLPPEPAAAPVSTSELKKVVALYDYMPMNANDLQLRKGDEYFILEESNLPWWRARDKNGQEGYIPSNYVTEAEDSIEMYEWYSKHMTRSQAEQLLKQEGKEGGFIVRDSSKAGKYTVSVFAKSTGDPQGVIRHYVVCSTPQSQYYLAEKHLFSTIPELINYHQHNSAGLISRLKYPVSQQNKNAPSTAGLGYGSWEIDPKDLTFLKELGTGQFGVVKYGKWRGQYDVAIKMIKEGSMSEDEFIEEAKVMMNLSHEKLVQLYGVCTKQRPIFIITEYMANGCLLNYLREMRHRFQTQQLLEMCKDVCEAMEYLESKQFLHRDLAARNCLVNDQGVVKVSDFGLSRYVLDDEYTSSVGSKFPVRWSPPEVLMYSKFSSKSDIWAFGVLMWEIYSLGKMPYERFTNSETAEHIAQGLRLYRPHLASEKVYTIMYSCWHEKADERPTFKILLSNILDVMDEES
In short: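 Luminescent ADP detection after a 60 min reaction at 22±1 °C containing Btk 2 ng/μl, 1.2 μM ATP, 0.3 μM poly GT peptide and 1.4 mM MnCl2. IC50 from log concentration versus percent inhibition relative to DMSO vehicle.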

IC50 (Btk) [µM] | SMILES | GI50 (TMD-8 cells) [µM]
0.0003 | O=C(/C=C/CN1CCCC1)N1CCC(Nc2ncnc3[nH]c(C#CCOc4ccccc4)nc23)C1 (centres unmarked) [Example 12, (E)-1-(3-((8-(3-phenoxyprop-1-yn-1-yl)-9H-purin-6-yl)amino)pyrrolidin-1-yl)-4-(pyrrolidin-1-yl)but-2-en-1-one] | 1.3
0.145 | C=CC(=O)N1CC[C@@H](Nc2ncnc3[nH]c(C#Cc4ccc5ncccc5c4)cc23)C1 [Example 77, (R)-1-(3-((6-(quinolin-6-ylethynyl)-7H-pyrrolo[2,3-d]pyrimidin-4-yl)amino)pyrrolidin-1-yl)prop-2-en-1-one] | 0.526
0.0002 | C=CC(=O)N1CC[C@@H](Nc2ncnc3[nH]c(C#Cc4ccc(Cl)c(Cl)c4)cc23)C1 [Example 64, (R)-1-(3-((6-((3,4-dichlorophenyl)ethynyl)-7H-pyrrolo[2,3-d]pyrimidin-4-yl)amino)pyrrolidin-1-yl)prop-2-en-1-one] | 0.005
0.0004 | CN(C)C/C=C/C(=O)N1CC[C@@H](Nc2ncnc3[nH]c(C#Cc4cccc(Cl)c4)cc23)C1 [Example 58, (R,E)-1-(3-((6-((3-chlorophenyl)ethynyl)-7H-pyrrolo[2,3-d]pyrimidin-4-yl)amino)pyrrolidin-1-yl)-4-(dimethylamino)but-2-en-1-one] | 0.171
0.136 | C=CC(=O)N1CC[C@@H](Nc2ncnc3[nH]c(C#CCOC4CCCCO4)cc23)C1 (stereo partly drawn) [Example 84, 1-((3R)-3-((6-(3-((tetrahydro-2H-pyran-2-yl)oxy)prop-1-yn-1-yl)-7H-pyrrolo[2,3-d]pyrimidin-4-yl)amino)pyrrolidin-1-yl)prop-2-en-1-one] | 1.09
0.742 | C=CC(=O)N1CC[C@@H](Nc2ncnc3[nH]c(C#Cc4ccccc4OC)cc23)C1 [Example 59, (R)-1-(3-((6-((2-methoxyphenyl)ethynyl)-7H-pyrrolo[2,3-d]pyrimidin-4-yl)amino)pyrrolidin-1-yl)prop-2-en-1-one] | 1.97
0.001 | C=CC(=O)N1CC[C@@H](Nc2ncnc3[nH]c(C#Cc4ccsc4)cc23)C1 [Example 76, (R)-1-(3-((6-(thiophen-3-ylethynyl)-7H-pyrrolo[2,3-d]pyrimidin-4-yl)amino)pyrrolidin-1-yl)prop-2-en-1-one] | 0.0032
0.0075 | CN(C)C/C=C/C(=O)N1CC[C@@H](Nc2ncnc3[nH]c(C#CCOc4ccccc4)nc23)C1 [Example 32, (R,E)-4-(dimethylamino)-1-(3-((8-(3-phenoxyprop-1-yn-1-yl)-9H-purin-6-yl)amino)pyrrolidin-1-yl)but-2-en-1-one] | 0.004
0.0148 | C=CC(=O)N1CCC(Nc2ncnc3[nH]c(C#CCOc4cccc(F)c4)nc23)C1 (centres unmarked) [Example 15, 1-(3-((8-(3-(3-fluorophenoxy)prop-1-yn-1-yl)-9H-purin-6-yl)amino)pyrrolidin-1-yl)prop-2-en-1-one] | 0.019
0.027 | C=CC(=O)N1CCC[C@@H](Nc2ncnc3[nH]c(C#Cc4ccc5c(c4)OCO5)cc23)C1 [Example 97, (R)-1-(3-((6-(benzo[d][1,3]dioxol-5-ylethynyl)-7H-pyrrolo[2,3-d]pyrimidin-4-yl)amino)piperidin-1-yl)prop-2-en-1-one] | 0.004
0.06 | C=CC(=O)N1CCN(c2ncnc3[nH]c(C#CCOCc4ccccc4)cc23)CC1 [Example 4, 1-(4-(6-(3-(benzyloxy)prop-1-yn-1-yl)-7H-pyrrolo[2,3-d]pyrimidin-4-yl)piperazin-1-yl)prop-2-en-1-one] | 0.157
0.043 | C=CC(=O)N1CC[C@@H](Nc2ncnc3[nH]c(C#CCOc4cc(F)ccc4F)cc23)C1 [Example 92, (R)-1-(3-((6-(3-(2,5-difluorophenoxy)prop-1-yn-1-yl)-7H-pyrrolo[2,3-d]pyrimidin-4-yl)amino)pyrrolidin-1-yl)prop-2-en-1-one] | 0.0038
0.001 | C=CC(=O)N1CCC(Nc2ncnc3[nH]c(C#CCOc4ccc(F)cc4F)nc23)C1 (centres unmarked) [Example 24, 1-(3-((8-(3-(2,4-difluorophenoxy)prop-1-yn-1-yl)-9H-purin-6-yl)amino)pyrrolidin-1-yl)prop-2-en-1-one] | 0.01
0.018 | C=CC(=O)N1CC[C@@H](Nc2ncnc3[nH]c(C#CCn4ncc5ccccc54)cc23)C1 [Example 86, (R)-1-(3-((6-(3-(1H-indazol-1-yl)prop-1-yn-1-yl)-7H-pyrrolo[2,3-d]pyrimidin-4-yl)amino)pyrrolidin-1-yl)prop-2-en-1-one] | 0.018
0.03 | C=CC(=O)N1CC[C@@H](Nc2ncnc3[nH]c(C#Cc4cccs4)cc23)C1 [Example 75, (R)-1-(3-((6-(thiophen-2-ylethynyl)-7H-pyrrolo[2,3-d]pyrimidin-4-yl)amino)pyrrolidin-1-yl)prop-2-en-1-one] | 0.0049
0.008 | C=CC(=O)N1CC[C@@H](Nc2ncnc3[nH]c(C#CCOc4cccc5c4OCO5)cc23)C1 [Example 83, (R)-1-(3-((6-(3-(benzo[d][1,3]dioxol-4-yloxy)prop-1-yn-1-yl)-7H-pyrrolo[2,3-d]pyrimidin-4-yl)amino)pyrrolidin-1-yl)prop-2-en-1-one] | 0.0017
0.006 | C=CC(=O)N1CC[C@@H](Nc2ncnc3[nH]c(C#CCOc4c(F)cccc4F)nc23)C1 [Example 98, (R)-1-(3-((8-(3-(2,6-difluorophenoxy)prop-1-yn-1-yl)-9H-purin-6-yl)amino)pyrrolidin-1-yl)prop-2-en-1-one] | 0.005
0.323 | CN(C)C/C=C/C(=O)N1CC[C@@H](Nc2ncnc3[nH]c(C#Cc4ccccc4Cl)cc23)C1 [Example 56, (R,E)-1-(3-((6-((2-chlorophenyl)ethynyl)-7H-pyrrolo[2,3-d]pyrimidin-4-yl)amino)pyrrolidin-1-yl)-4-(dimethylamino)but-2-en-1-one] | 1
0.014 | C=CC(=O)N1CCC[C@@H](Nc2ncnc3[nH]c(C#Cc4ccccc4)cc23)C1 [Example 96, (R)-1-(3-((6-(phenylethynyl)-7H-pyrrolo[2,3-d]pyrimidin-4-yl)amino)piperidin-1-yl)prop-2-en-1-one] | 0.066
0.001 | C=CC(=O)N1CC[C@@H](Nc2ncnc3[nH]c(C#CCOc4ccccc4F)nc23)C1 [Example 101, (R)-1-(3-((8-(3-(2-fluorophenoxy)prop-1-yn-1-yl)-9H-purin-6-yl)amino)pyrrolidin-1-yl)prop-2-en-1-one] | 0.003
0.032 | C=CC(=O)N1CC[C@@H](Nc2ncnc3[nH]c(C#CCOc4cccc(F)c4Cl)nc23)C1 [Example 100, (R)-1-(3-((8-(3-(2-chloro-3-fluorophenoxy)prop-1-yn-1-yl)-9H-purin-6-yl)amino)pyrrolidin-1-yl)prop-2-en-1-one] | 0.006
0.038 | C=CC(=O)N1CC[C@@H](Nc2ncnc3[nH]c(C#CCOc4ccccc4C#N)cc23)C1 [Example 82, (R)-1-(3-((6-(3-(2-cyanophenoxy)prop-1-yn-1-yl)-7H-pyrrolo[2,3-d]pyrimidin-4-yl)amino)pyrrolidin-1-yl)prop-2-en-1-one] | 0.0045

— US10144737B2 (ETERNITY BIOSCIENCE INC., priority 2014, dated 2018)
